From patent US20070004649A1, “Anti-influenza virus compound comprising biflavonoid-sialic acid glycoside” (The Kitasato Institute, priority 2003, published 2007)
Read-outs that look alike come from different tables or passages of the source.

Experiments:
[1] = biological target: A/Guizhou/54/89 virus sialidase (Influenza A virus, UniProt I6UMM5); assay: Inhibitory activity against influenza A/Guizhou/54/89 virus sialidase (4-MU-NeuAc substrate, HA vaccine as enzyme); assay type: biochemical, influenza virus A/Guizhou/54/89 (H3N2 subtype)
Chain of A/Guizhou/54/89 virus sialidase (I6UMM5 1-469): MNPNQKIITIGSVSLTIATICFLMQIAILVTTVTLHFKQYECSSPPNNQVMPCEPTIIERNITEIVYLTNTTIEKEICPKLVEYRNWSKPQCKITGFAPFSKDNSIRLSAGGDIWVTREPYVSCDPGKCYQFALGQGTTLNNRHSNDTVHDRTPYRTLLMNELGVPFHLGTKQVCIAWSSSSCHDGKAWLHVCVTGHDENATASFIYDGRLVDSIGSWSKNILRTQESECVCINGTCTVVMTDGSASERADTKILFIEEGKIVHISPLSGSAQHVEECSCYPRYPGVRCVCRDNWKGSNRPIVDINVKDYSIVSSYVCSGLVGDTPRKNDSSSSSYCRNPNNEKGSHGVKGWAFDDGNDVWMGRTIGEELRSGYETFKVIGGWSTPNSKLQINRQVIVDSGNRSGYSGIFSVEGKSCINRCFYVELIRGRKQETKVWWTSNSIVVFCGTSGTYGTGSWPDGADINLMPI

[2] = system: MDCK (Madin-Darby canine kidney) cells; assay: Cytotoxicity in non-infected MDCK cells (MTT method); conditions: 12.5 μg/mL, three days
[3] = biological target: A/PR/8/34 virus sialidase (Influenza A virus, UniProt P03468); assay: Inhibitory activity against influenza A/PR/8/34 virus sialidase (4-MU-NeuAc substrate, HA vaccine as enzyme); assay type: biochemical, influenza virus A/PR/8/34 (H1N1 subtype)
Chain of A/PR/8/34 virus sialidase (P03468 whole entry): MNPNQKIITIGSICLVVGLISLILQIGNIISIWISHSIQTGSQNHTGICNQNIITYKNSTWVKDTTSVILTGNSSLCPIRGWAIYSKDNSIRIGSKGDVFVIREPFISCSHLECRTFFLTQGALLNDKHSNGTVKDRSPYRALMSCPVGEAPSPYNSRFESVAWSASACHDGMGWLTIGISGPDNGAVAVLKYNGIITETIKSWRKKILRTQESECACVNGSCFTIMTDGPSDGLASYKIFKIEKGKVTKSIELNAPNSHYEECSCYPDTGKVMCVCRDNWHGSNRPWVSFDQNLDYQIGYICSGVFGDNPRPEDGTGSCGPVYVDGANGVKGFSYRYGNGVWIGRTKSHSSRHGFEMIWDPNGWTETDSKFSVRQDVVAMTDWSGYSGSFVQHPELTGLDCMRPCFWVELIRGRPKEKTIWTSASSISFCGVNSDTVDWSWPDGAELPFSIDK

[4] = biological target: B/Ibaraki/2/85 virus sialidase (Influenza B virus, UniProt P16207); assay: Inhibitory activity against influenza B/Ibaraki/2/85 virus sialidase (4-MU-NeuAc substrate, HA vaccine as enzyme); assay type: biochemical, influenza virus B/Ibaraki/2/85
Chain of B/Ibaraki/2/85 virus sialidase (P16207 whole entry): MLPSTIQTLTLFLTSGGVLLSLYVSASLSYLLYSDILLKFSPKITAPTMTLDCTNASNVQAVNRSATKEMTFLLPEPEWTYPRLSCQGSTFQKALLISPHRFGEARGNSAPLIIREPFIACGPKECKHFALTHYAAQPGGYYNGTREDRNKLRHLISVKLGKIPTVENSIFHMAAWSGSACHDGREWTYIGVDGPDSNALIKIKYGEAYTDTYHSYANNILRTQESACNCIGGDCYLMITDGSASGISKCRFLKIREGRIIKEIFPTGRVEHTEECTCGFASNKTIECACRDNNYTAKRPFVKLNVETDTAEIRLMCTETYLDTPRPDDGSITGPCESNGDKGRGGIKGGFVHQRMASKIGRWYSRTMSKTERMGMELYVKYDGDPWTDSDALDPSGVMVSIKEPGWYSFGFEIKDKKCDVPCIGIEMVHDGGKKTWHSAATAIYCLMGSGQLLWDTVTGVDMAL

[5] = system: influenza virus; conditions: cited from earlier work
[6] = system: influenza virus; conditions: cited from earlier work; remark: listed apart in the source
[7] = final concentration of 10 μg/mL

COc1cc(O)c2c(=O)cc(-c3ccc(OC)c(-c4c(OC5(C(=O)O)CC(O)C(NC(C)=O)C(C(O)C(O)CO)O5)cc(O)c5c(=O)cc(-c6ccc(OC7(C(=O)O)CC(O)C(NC(C)=O)C(C(O)C(O)CO)O7)cc6)oc45)c3)oc2c1 [Gin-Neu-2-(S), (S)-7″,4′″-di-O-(N-acetylneuraminyl)-7,4′-di-O-methylamentoflavone]
inhibitory activity against the A/Guizhou/54/89 virus sialidase ([1]; final concentration of 1 μg/mL): about 50%

COc1cc(O)c2c(=O)cc(-c3ccc(OC)c(-c4c(O)cc(O)c5c(=O)cc(-c6ccc(O)cc6)oc45)c3)oc2c1 [ginkgetin]
cytotoxicity (cell viability by the MTT method) [2]: showed cytotoxicity

COc1ccc(-c2cc(=O)c3c(O)cc(O[C@]4(C(=O)O)C[C@H](O)[C@@H](NC(C)=O)[C@H]([C@H](O)[C@H](O)CO)O4)c(-c4cc(-c5cc(=O)c6c(O)cc(OC)cc6o5)ccc4OC)c3o2)cc1 (relative stereo) [Sci-Neu-2, (S)-7″-O-(N-acetylneuraminyl)-7,4′,4′″-tri-O-methylamentoflavone]
melting point: 200 °C (dec.)
IC50 [3]: 5.74 µM
inhibition at 10 µg/mL ([3]; even at a final concentration of 10 μg/mL (second sentence of b311), read-out: inhibitory activity against the A/PR/8/34 virus sialidase): ≥ 70%
inhibition at 10 µg/mL ([3]; read-out: inhibitory activity against the A/PR/8/34 virus sialidase, final concentration of 10 μg/mL (first sentence of b311)): ≥ 80%
IC50 [1]: 1.15 µM
inhibition at 1 µg/mL ([1]; final concentration of 1 μg/mL): ~50%
inhibition at 10 µg/mL [1, 7]: ≥ 80%
inhibition at 10 µg/mL [4, 7]: 65%
inhibition at 100 µg/mL ([4]; final concentration of 100 μg/mL): ≥ 80%

(R)-7″-O-(N-acetylneuraminyl)-7,4-di-O-methylamentoflavone [Gin-Neu-1-(R)]
IC50, A/Guizhou/54/89 virus sialidase [1]: 1 µg/mL
inhibitory activity against the A/Guizhou/54/89 virus sialidase ([1]; final concentration of 1 μg/mL): about 50%

(5)-7″-O-(N-acetylneuraminal)-7,4′-di-O-methylamentoflavone [Gin-Neu-1-(S)]
inhibitory activity against the A/Guizhou/54/89 virus sialidase ([1]; final concentration of 1 μg/mL): about 50%

COC(=O)C1(Oc2cc(O)c3c(=O)cc(-c4ccc(O)cc4)oc3c2-c2cc(-c3cc(=O)c4c(O)cc(OC)cc4o3)ccc2OC)CC(OC(C)=O)C(NC(C)=O)C(C(OC(C)=O)C(COC(C)=O)OC(C)=O)O1 [Gin-NeuAc-3, (S)-7,4′-di-O-methyl-7″-O-(1″″-methyl-4″″,7″″,8″″,9″″-tetra-O-acetyl-N-acetylneuraminyl)a mentoflavone]
inhibitory activity against the A/Guizhou/54/89 virus sialidase ([1]; final concentration of 1 μg/mL): about 50%

COc1ccc(-c2cc(=O)c3c(O)cc(O)c(-c4cc(-c5cc(=O)c6c(O)cc(O)cc6o5)ccc4OC)c3o2)cc1 [isoginkgetin]
cytotoxicity (cell viability by the MTT method) [2]: showed cytotoxicity

COc1c(O)cc(O)c2c(=O)cc(-c3ccc(O)cc3)oc12 [F36, 5,7,4′-trihydroxy-8-methoxyflavone]
anti-influenza virus activity in vitro [5]: has anti-influenza virus activity
anti-influenza virus activity in vivo [6]: has anti-influenza virus activity

COC(=O)C1(Oc2ccc(-c3cc(=O)c4c(O)cc(OC5(C(=O)OC)C[C@H](OC(C)=O)[C@@H](NC(C)=O)[C@H]([C@H](OC(C)=O)[C@@H](COC(C)=O)OC(C)=O)O5)c(-c5cc(-c6cc(=O)c7c(O)cc(OC)cc7o6)ccc5OC)c4o3)cc2)C[C@H](OC(C)=O)[C@@H](NC(C)=O)[C@H]([C@H](OC(C)=O)[C@@H](COC(C)=O)OC(C)=O)O1 (stereo partly drawn) [Gin-NeuAc-4, (R)-7,4′-di-O-methyl-7″-O-(1″″-methyl-4″″,7″″,8″″,9″″-tetra-O-acetyl-N-acetylneuraminyl)-4′″-O-(1′″″-methyl-4′″″,7′″″,8′″″,9′″″-tetra-O-acetyl-N-acetylneuraminyl)amentoflavone]
inhibitory activity against the A/Guizhou/54/89 virus sialidase ([1]; final concentration of 1 μg/mL): about 50%
